From patent US11241450B2, “Uridine diphosphate derivatives, prodrugs, compositions and uses thereof” (TUFTS UNIVERSITY, priority 2012, dated 2022)
pEC50: −log10 of the molar value. Structures can show the parent of a compound that is named as a salt. Where two headings read alike, the source gives them in different places.

Columns and labels:
P2Y6 receptor [1] = target: T1, P2Y6 receptor (Homo sapiens, UniProt Q15077); settings: cited from earlier work
[2] = system: amyloid plaques in PSAPP mice; test: Postmortem immunohistochemistry of plaque load in cortex and hippocampus; type: in vivo, mouse; settings: for decrease in plaque load, cortex / decrease in plaque load, hippocampus: acute i.c.v.
Text: (§1) Heterozygous mutant (K670N/M671L) APP (50% C57B6, 50% SJL) transgenic mice were crossed with heterozygous mutant (A246E) PS-1 (50% C57B6, 50% SJL) transgenic mice to generate heterozygous PSAPP transgenic mice (also referred to as PS-1/APP or PSAPP+/+ mice), which refers to animals heterozygous for the PS-1 A246E transgene and the APP K670N/M671L transgene. Non-transgenic control animals were littermates (also referred to as PSAPP_−/− mice) generated in the breeding for PSAPP transgenic animals. Mouse genotype was determined by Polymerase Chain Reaction (PCR). Both male and female mice of 6-7 months old were used for the experiments below. All animal experiments were performed in accordance with the Tufts Animal Care and Use Committee and with national regulations and policies.
Mice were perfused transcardially with 4% paraformaldehyde and 40 μm Coronal sections were collected. Sections were sequentially incubated in 0.3% H2O2 for 10 minutes, blocking solution for 2 hrs, blocking solution containing the primary antibody (rabbit anti-beta1-42; rabbit anti-beta1-40, from Chemicon International and rat anti-CD45) for 48 hours at 4° C., and blocking solution containing biotinylated antibody or fluorescently-labeled antibody for 2 hours at room temperature. Sections were visualized in a bright field microscope or a confocal microscope, and the optical density was obtained using MetaMorph software.
After repeated imaging, brains were fixed and subjected to postmortem immunohistochemistry with amyloid beta specific antibodies β1-40 and β1-42 to evaluate the plaque load (area occupied by immunostaining of plaque) in cortex and hippocampus.
PSB0474 was systemically administered to PSAPP mice via intraperitoneal injection for 2, 4 and 6 consecutive days. In one group, prior to evaluation and following to administration for 6 consecutive days, treatment was suspended for two weeks (6+2 weeks group). Brains were then fixed and plaque load was evaluated by immunostaining with the amyloid beta specific antibodies: β1-40 and β1-42. Representative images of plaque load in cortex and hippocampus from animals that received injections of PSB0474 according to the foregoing injection schedules are shown in FIG. 5(A)-(D). […] Whereas, when administration of PSB0474 was stopped for 2 weeks following six consecutive days of treatment (denoted as the 6+2 weeks group), β1-40 staining rebounded; although to a level lower than observed in mice treated with saline as a vehicle control. FIGS. 6A and 6B depict the reduction in plaque load (%) the cortex and hippocampus, respectively, in PSAPP mice after treatment with 3-phenacyl-UDP for 2, 4, or 6 consecutive days, as assayed by staining with the β1-40 antibody. FIGS. 6C-6F depict data obtained following administration of different dosages of PSB0474.
To generate these graphs showing plaque load, mice were euthanized, brain sections cut and antibodies directed against Aβ 42 were used to disclose Aβ plaques. Images were acquired digitally and an algorithm was applied to threshold the image so that plaques were isolated from the background. The algorithm then calculated the percent area of the field of view occupied by the plaques.

PSAPP mice [3] = test: Tolerability of increased dose in PSAPP mice; type: in vivo, mouse; settings: 1000× increase in dose
PSAPP mice [4] = test: Contextual fear conditioning test; type: in vivo, mouse
Text: as §1
On day one, animals were trained in a fear conditioning apparatus for a total of 7 minutes with a two-pairing paradigm of cue and mild foot shock (a 30-s acoustic-conditioned stimulus, 80 dB; a 2-s shock stimulus, 0.5 mA). To evaluate contextual fear learning, the animals were returned to the training context 24 hours post-training, and freezing behavior was scored for 5 minutes. Freezing behavior was monitored by MotorMonitor (Hamilton Kinder) and scored every 5 seconds.
In this study, the fear conditioning associative learning paradigm was used as a rapid cognition assay for PSAPP mice. This study allowed us to probe cognitive function with a single training day followed in 24 hours by tests for contextual and cued fear learning. Contextual fear learning is dependent upon a brain area that has been implicated as a locus for cognitive decline in AD: the hippocampus. Two pairings of CS-US for fear conditioning were followed 24 hours later by testing for contextual and cued fear learning. Previous studies have reported that PSAPP animals appear to have a selective hippocampus-dependent impairment in associative learning following two pairings of conditioned stimuli for fear conditioning.
This represents a decrease in the cognitive impairment observed in the untreated mice.

plasma cytokines = test: Plasma cytokine levels after 7 daily i.p. injections; type: in vivo, mouse; settings: 1 μg/kg i.p., 7 days
Method: Inflammatory cytokines were assessed in mouse plasma of both wild type and PS1/APP mice (Alzheimer's mouse model) and the impact of intraperitoneal delivery of compound 5 on circulating cytokines was assessed. Seven daily intraperitoneal injections of 1 μg/kg of compound 5 were delivered to mice. 24 hours following the final injection, plasma was collected. Wildtype, age matched littermates and PSAPP mice (>6 months of age) were treated either with vehicle (phosphate buffered saline) or vehicle containing compound.

PSAPP mice [5] = test: Hippocampal long-term potentiation (LTP) recording; type: in vivo, mouse; settings: acute treatment, HFS
Method: Hippocampal slices (350 μm thick) were prepared from 6-month-old PSAPP mice. Baseline responses were obtained every 10 seconds and Input-output (I/O) curves, paired-pulse modification and LTP were successively measured. The stimulation intensity was set to a level that gives a value of 30% of the maximum obtained. LTP were induced by high frequency stimulation (HFS, 100 pulses at 100 Hz, four times) or by theta-burst stimulation (TBS, 10 bursts at 5 Hz, repeated 10 times in 15 s intervals).
Accumulated evidence has shown that amyloid peptides naturally secreted or isolated from Alzheimer's brains impair synaptic plasticity, especially hippocampal long-term potentiation (Walsh et al., 2002). Therefore, we further performed LTP recordings in PASPP mice and investigated whether P2Y6 receptor-mediated plaque clearance affects synaptic plasticity. […] First, it was observed that LTP at the schaffer collateral synapse within the CA1 region was depressed in PSAPP mice, as compared with littermates (FIG. 8(A)).

[6] = system: amyloid plaques in PSAPP mice; test: Two-photon in vivo imaging of methoxyX04-labeled amyloid plaques in barrel cortex; design: species or system mouse; settings: acute i.c.v. injection
Text: as §1
In this study, PSAPP mice were anesthetized using isoflurane and a thin-skull preparation was used to minimize the surface damage. Amyloid plaques were visualized with methoxyX04 labeling and blood plasma was labeled with Rhodamine dextran to facilitate re-localization of the same imaging area. Stack images were obtained using a two-photon system (Prairie Technologies) with excitation at 850 nm. The emission was detected by external photomultiplier tubes (525/70; DLCP 575; 607/45 nm).
Animals were anesthetized and immobilized in a stereotaxic frame. For each injection, 1 μl of 10 mM UDP or other suitable compounds in artificial cerebrospinalfluid (ACSF) as the vehicle were injected intraventricularly using the following coordinates: AP 0.2 mm, ML 1 mm, and DV 2.2 mm.
To evaluate the effect of UDP on plaque burden, two-photon microscopy was used to assess the amyloid plaques in the barrel cortex in living PSAPP mice. Amyloid plaques were stained by systemically administered methoxy-X04. One day prior to imaging, PSAPP mice were injected with methoxyX04 to label the amyloid plaques. On the imaging day, to facilitate the re-location of the same imaging area, blood plasma was labeled with Rhodamine dextran. Images were obtained from the same start- and end-point to ensure the same image volume. […]

P2Y2 receptor = target: T2, P2Y2 receptor (Homo sapiens, UniProt P41231); test: Ca2+ mobilization with fluo-4 in 1321N1 astrocytoma cells expressing P2Y2; type: cell-based; settings: 1321N1 cells expressing P2Y2
T2 construct: expressed in transfected cells; host or cells: 1321N1 human astrocytoma cells
Method: (§2) Synthetic ligands were tested for activation of P2Y6 receptor by measuring receptor induced Ca^2+ changes with the fluorescent Ca^2+ indicator fluo-4. 1321N1 human astrocytoma cell lines either expressing P2Y2, P2Y4 or P2Y6 receptors were plated into 24-well plates. Two days after plating, fluorometric measurements were made and responses of cells to a serial dilution of ligands were determined. P2Y6 receptor-mediated Ca^2+ fluorescent change was determined by normalized accumulation of fluorescent change of 3 timepoints after ligand administration subtracted by value from ACSF control. Changes in fluorescent intensity were plotted corresponding to ligand concentration in GraphPad. Dose-response curve and EC50 for each ligand was estimated using nonlinear curve fit and Sigmoidal dose-response analysis. […]
(§3) Synthetic ligands were tested for activation of P2Y6 receptor by measuring receptor induced Ca^2+ changes with the fluorescent Ca^2+ indicator fluo-4, and results are shown in FIG. 10(A)-(K). […] Two days after plating, fluorometric measurements were made and responses of cells to a serial dilution of ligands were determined. P2Y6 receptor-mediated Ca^2+ fluorescent change was determined by normalized accumulation of fluorescent change of 3 timepoints after ligand administration subtracted by value from ACSF control. […]

P2Y6 receptor [7] = target: T1, P2Y6 receptor; test: Activation of P2Y6 receptor: Ca2+ changes with fluo-4 in 1321N1 astrocytoma cells expressing P2Y6; type: cell-based; design: expressed in transfected cells; host or cells: 1321N1 human astrocytoma cells
Method: Synthetic ligands were tested for activation of P2Y6 receptor by measuring receptor induced Ca^2+ changes with the fluorescent Ca^2+ indicator fluo-4. 1321N1 human astrocytoma cell lines either expressing P2Y2, P2Y4 or P2Y6 receptors were plated into 24-well plates. Two days after plating, fluorometric measurements were made and responses of cells to a serial dilution of ligands were determined. P2Y6 receptor-mediated Ca^2+ fluorescent change was determined by normalized accumulation of fluorescent change of 3 timepoints after ligand administration subtracted by value from ACSF control. Changes in fluorescent intensity were plotted corresponding to ligand concentration in GraphPad. Dose-response curve and EC50 for each ligand was estimated using nonlinear curve fit and Sigmoidal dose-response analysis. […] The sodium salt of compound 5 was only effective at elevating Ca^2+ levels when applied to cells expressing P2Y6 receptors and not effective in P2Y2, or P2Y4 receptor expressing cells. The ability of the sodium salt of compound 5 to elevate Ca^2+ signals in P2Y6 expressing cells was attenuated by addition of the P2Y6 receptor antagonist MRS2578.
as §2, with “fluo-4, and results are shown in FIG. 10(A)-(K).” for “fluo-4.”

P2Y4 receptor = target: T3, P2Y4 receptor (Homo sapiens, UniProt P51582); test: Ca2+ mobilization with fluo-4 in 1321N1 astrocytoma cells expressing P2Y4; type: cell-based; settings: 1321N1 cells expressing P2Y4
T3 construct: expressed in transfected cells; host or cells: 1321N1 human astrocytoma cells
Method: as §2, §3

[8] = β1-42 antibody, vs vehicle control
[9] = i.p. daily for 7 consecutive days

T1 sequence (Q15077 whole entry): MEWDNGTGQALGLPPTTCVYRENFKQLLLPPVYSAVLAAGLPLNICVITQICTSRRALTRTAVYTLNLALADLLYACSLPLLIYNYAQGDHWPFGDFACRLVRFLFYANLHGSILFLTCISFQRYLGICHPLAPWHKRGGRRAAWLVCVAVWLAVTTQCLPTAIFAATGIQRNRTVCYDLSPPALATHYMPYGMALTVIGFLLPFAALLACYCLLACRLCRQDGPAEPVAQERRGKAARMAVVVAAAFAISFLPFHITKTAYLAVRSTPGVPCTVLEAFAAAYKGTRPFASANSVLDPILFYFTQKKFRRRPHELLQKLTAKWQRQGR
T3 sequence (P51582 whole entry): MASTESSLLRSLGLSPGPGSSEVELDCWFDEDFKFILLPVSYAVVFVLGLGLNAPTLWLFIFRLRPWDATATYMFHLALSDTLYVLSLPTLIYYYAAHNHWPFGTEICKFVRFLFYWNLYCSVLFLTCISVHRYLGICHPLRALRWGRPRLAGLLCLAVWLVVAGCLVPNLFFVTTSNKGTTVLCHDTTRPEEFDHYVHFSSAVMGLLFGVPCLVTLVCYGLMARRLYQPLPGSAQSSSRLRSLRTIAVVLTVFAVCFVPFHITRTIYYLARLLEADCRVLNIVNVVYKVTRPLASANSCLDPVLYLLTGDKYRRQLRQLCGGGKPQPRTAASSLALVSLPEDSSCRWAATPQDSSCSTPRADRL
T2 sequence (P41231 whole entry): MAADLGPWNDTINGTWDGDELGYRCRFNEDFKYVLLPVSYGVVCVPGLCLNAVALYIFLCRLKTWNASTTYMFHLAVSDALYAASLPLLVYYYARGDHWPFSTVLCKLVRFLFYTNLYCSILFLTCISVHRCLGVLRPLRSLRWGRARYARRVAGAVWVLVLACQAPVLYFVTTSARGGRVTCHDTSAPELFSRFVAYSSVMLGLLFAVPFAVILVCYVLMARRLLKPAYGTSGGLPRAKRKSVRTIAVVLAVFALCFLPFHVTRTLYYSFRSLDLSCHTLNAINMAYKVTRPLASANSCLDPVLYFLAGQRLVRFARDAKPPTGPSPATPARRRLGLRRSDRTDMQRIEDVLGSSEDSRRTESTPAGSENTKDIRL

Which results are given for `O=C(Cn1c(=O)ccn(C2OC(COP(=O)(O)OP(=O)(O)O)C(O)C2O)c1=O)c1ccccc1` (centres unmarked) [3-phenacyl-UDP]?
selectivity for P2Y6 receptor (P2Y6 receptor [1]): > 500 fold; pEC50 (P2Y6 receptor [1]; read-out: EC50, P2Y6 receptor agonist): 7.15; effects on the efficacy endpoint at the higher dose ([2]; 1 mg/kg): smaller effects; β1-40 staining after stopping administration ([2]; 6 consecutive days i.p., then stopped for 2 weeks): rebounded; immunoreactivity of β1-40 in cortex and hippocampus ([2]; i.p. for 4 and 6 consecutive days): significantly decreased; detrimental effects to the animal (PSAPP mice [3]): did not cause detrimental effects; total freezing percentage in context test (PSAPP mice [4]; chronic injection, two doses): increased; memory deficit in contextual fear conditioning test (PSAPP mice [4]; one week treatment with 1 μg/kg): rescued the memory deficit

Which results are given for `O=c1ccn([C@@H]2O[C@H](COP(=O)(O)OP(=O)(O)O)[C@H](O)C2O)c(=O)n1Cc1noc2ccccc12` (some centres unmarked) [Compound 5]?
plasma level of IL-2 (plasma cytokines; PSAPP mice): reduced; plasma level of IL-7 (plasma cytokines; PSAPP mice): reduced; plasma level of IL-9 (plasma cytokines; PSAPP mice): reduced; plasma level of IL-10 (plasma cytokines; PSAPP mice): reduced; plasma level of IL-15 (plasma cytokines; PSAPP mice): reduced; plasma level of Il-1β (plasma cytokines; PSAPP mice): reduced; plasma level of MIG (plasma cytokines; PSAPP mice): reduced; plasma level of MIP1α (plasma cytokines; PSAPP mice): reduced; plasma level of IL-2 (plasma cytokines; wildtype animals): reduced; plasma level of IL-10 (plasma cytokines; wildtype animals): reduced; Aβ plaque load (%) in the cortex [2, 8]: substantial decrease; Aβ plaque load (%) in the hippocampus [2, 8]: substantial decrease; freezing behavior relative to wildtype animals (PSAPP mice [4]; [9]): restored to a level equivalent to that observed in wildtype animals; total freezing percentage in the context test (PSAPP mice [4]; [9]): increased

Which results are given for `O=c1ccn([C@@H]2O[C@H](COP(=O)(O)OP(=O)(O)O)[C@@H](O)[C@H]2O)c(=O)[nH]1` [UDP, uridine diphosphate]?
LTP deficit at CA1 (PSAPP mice [5]): reversed this LTP deficit; field excitatory postsynaptic potential (fEPSP), last 15 min potentiation (PSAPP mice [5]): significant increase; reduction in plaque load ([6]; day 4 vs day 1, barrel cortex): 17.2%; reduction in the number of plaques ([6]; day 4 vs day 1, barrel cortex): 12.6%; reduction in cross-sectional area of individual identified plaques ([6]; second imaging session): 18.2%; decrease in plaque load, cortex ([2]; β1-40 antibody): 60%; decrease in plaque load, hippocampus ([2]; β1-40 antibody): 62%; decrease in plaque load, cortex ([2]; β1-42 antibody): 48%; decrease in plaque load, hippocampus ([2]; β1-42 antibody): 47%; freezing behavior during the first 4 minutes (PSAPP mice [4]; acute i.c.v., 5 minute testing time): increased; total freezing percentage (PSAPP mice [4]; acute i.c.v., contextual test): 49%±5%

For `O=c1ccn(C2OC(COP(=O)(O)OP(=O)(O)O)[C@H](O)C2O)c(=O)n1Cc1noc2ccccc12` (some centres unmarked) [sodium salt of compound 5], which “elevating Ca2+ levels in P2Y2 receptor expressing cells” value (P2Y2 receptor) is on record?
The value was “not effective”.

And the “elevating Ca2+ levels in cells expressing P2Y6 receptors” value (P2Y6 receptor [7]; 1321N1 cells expressing P2Y6)?
The value was “effective”.

What about the pEC50 (P2Y6 receptor [7]; 1321N1 cells expressing P2Y6, fluo-4 Ca2+) of the same molecule?
The pEC50 was 7.92.

And the “ability to elevate Ca2+ signals on addition of P2Y6 receptor antagonist MRS2578” value (P2Y6 receptor [7]; P2Y6 expressing cells, plus MRS2578)?
The value was “attenuated”.

And the “elevating Ca2+ levels in P2Y4 receptor expressing cells” value (P2Y4 receptor)?
Its value is “not effective”.
